Tests used:
[1] = test system: human Capan-1 pancreatic tumor cells; test: Capan-1 pancreatic xenograft antitumor activity; assay type: in vivo, SCID-Rag2M mice; conditions: i.v., Q7D × 3, tumors to reach 500 mg
Procedure: (§1) Briefly, in order to perform tumor studies on mice, animals are inoculated with tumor cells which are then allowed to grow to sufficient size. Using a 28 g needle, mice are inoculated subcutaneously with 1-2×10^6 tumor cells on day 0 (one inoculum/mouse) in a volume of 50 μL.
(§2) When tumors reach a defined size of approximately 100 mm^3 to 200 mm^3, either one-day prior to treatment or on the day of treatment, all tumors are measured. After selecting the appropriate tumor sizes, excluding tumors too small or large, the tumors are randomly distributed (n=6) and the mean tumor volume of the groups are determined. Mice are organized into appropriate treatment groups consisting of control and treatment groups such as for example, saline control, liposome control, positive control and various dilutions of test articles.
(§3) Mice are injected intravenously with the required volume of sample to administer the prescribed dose (10 μL/g as indicated) to the animals based on individual mouse weights.
(§4) Tumor growth measurements are monitored using vernier calipers beginning on the day of treatment. Tumor length measurements (mm) are made from the longest axis and width measurements (mm) will be perpendicular to this axis. From the length and width measurements tumor volumes (cm^3) are calculated according to the equation (L×W^2/2. Animal weights and in-life observations are collected at the time of tumor measurement.
(§5) In particular, signs of ill health are based on body weight loss, change in appetite, rough coat, lack of grooming, behavioral changes such as altered gait, lethargy and gross manifestations of stress. Should signs of severe toxicity or tumor-related illness be seen, the animals are euthanized (CO2 asphyxiation) and a necropsy is performed to assess other signs of toxicity. Moribund animals are terminated for humane reasons and the decision to terminate is at the discretion of the Study Director/Manager and the Animal Care Technician. Any and all of these findings will be recorded as raw data and the time of death will be logged as the following day.
(§6) Xenograft tumors were allowed to grow until they measured to be approximately 150 mg (150 mm^3) in size, and the murine tumors were grown to approximately 100 mg (100 mm^3), at which time the indicated formulations were injected. Tumor growth was determined by direct caliper measurements. […] Antitumor activity was quantitated by calculating the percent tumor growth delay and log cell kill. Percent tumor growth delay is defined as the time in days taken for treated tumors to reach the specified evaluation size as a percent of control (T−C/C×100) where T is the treatment tumors and C is the control tumors in days. […] A log cell kill of +6 indicates a 99.9999% reduction in the cell population.

[2] = test system: human HT-29 colon adenocarcinoma; test: HT-29 colorectal xenograft antitumor activity; conditions: i.v., Q7D × 3, tumors to reach 400 mg
Procedure: as §1, §2, §3, §4, §5, §6

Structure (SMILES) | Log cell kill ([1]; dose 100 mg/kg) | Percent tumor growth delay [(T − C ÷ C) × 100] ([1]; dose 100 mg/kg) [%] | Tumor growth delay ([1]; dose 100 mg/kg) [days] | Log cell kill ([2]; dose 100 mg/kg) | Percent tumor growth delay [(T − C ÷ C) × 100] ([2]; dose 100 mg/kg) [%] | Tumor growth delay ([2]; dose 100 mg/kg) [days] | Percent tumor growth delay [(T − C ÷ C) × 100] ([2]; dose 100 mg/kg, listed as free CPT-11, 100 mg/kg) [%] | Log cell kill ([1]; dose 250 mg/kg) | Percent tumor growth delay [(T − C ÷ C) × 100] ([1]; dose 250 mg/kg) [%] | Tumor growth delay ([1]; dose 250 mg/kg) [days] | Log cell kill ([2]; dose 250 mg/kg) | Percent tumor growth delay [(T − C ÷ C) × 100] ([2]; dose 250 mg/kg) [%] | Tumor growth delay ([2]; dose 250 mg/kg) [days] | Percent tumor growth delay [(T − C ÷ C) × 100] ([2]; dose 250 mg/kg, listed as free FUDR) [%]
CCc1c2c(nc3ccc(OC(=O)N4CCC(N5CCCCC5)CC4)cc13)-c1cc3c(c(=O)n1C2)COC(=O)[C@]3(O)CC [Free Irino, irinotecan] | 0.65 | 35 | 15 | 0.09 | 8 | 2 | 8 |  |  |  |  |  |  | 
O=c1[nH]c(=O)n([C@H]2C[C@H](O)[C@@H](CO)O2)cc1F [Free Flox, fluorodeoxyuridine] |  |  |  |  |  |  |  | 0.43 | 23 | 10 | 0.09 | 8 | 2 | 8
